From patent publication US10669272B2, “Substituted naphthyridinone compounds useful as T cell activators” (BRISTOL-MYERS SQUIBB COMPANY, priority 2018, dated 2020)
Like-named read-outs stand apart in the source and are kept apart here.

What was measured:
human DGKα = target: T1, human DGKα (Homo sapiens, UniProt P23743); test: DGKα LIPGLO assay (extruded liposome substrate), in vitro DGK inhibition; type: biochemical; conditions: read-out: DGKa LIPGLO IC50
T1 construct: TVMV protease cleavage site (C); Hexa-His (C); made in house; host or cells: Sf9 insect cells (baculovirus, Bac-to-Bac)

human DGKζ = target: T2, human DGKζ (Homo sapiens, UniProt Q13574); test: DGKζ LIPGLO assay (extruded liposome substrate), in vitro DGK inhibition; type: biochemical; conditions: read-out: DGKz LIPGLO IC50
T2 construct: TVMV protease cleavage site (C); Hexa-His (C); made in house; host or cells: Sf9 insect cells (baculovirus, Bac-to-Bac)

Human venous whole blood = test: Human whole blood IFN-γ assay; type: cell-based;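 also: blood from healthy donors exposed to compound for 1 h before stimulation with anti-CD3 and anti-CD28 at 1 µg/mL each, IFN-γ quantified in supernatant by AlphaLISA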
[1] = Homo sapiens, 24 h, human whole blood; normalized to 3 μM reference compound with anti-CD3 plus anti-CD28 as 100% activation; read-out: INFg Whole Blood Normalized Agonist EC50
[2] = human whole blood; normalized to 3 μM reference compound with anti-CD3 plus anti-CD28 as 100% activation; read-out: INFg Whole Blood Normalized Agonist EC50
[3] = human whole blood, anti-CD3 plus anti-CD28, 24 hours; 3 μM reference compound = 100% activation; read-out: INFg Whole Blood Normalized Agonist EC50
[4] = Homo sapiens, 24 h, human whole blood, anti-CD3 plus anti-CD28, 24 hours; 3 μM reference compound = 100% activation; read-out: INFg Whole Blood Normalized Agonist EC50

T2 sequence (Q13574 with tags, fused parts or gaps isoform Q13574-4): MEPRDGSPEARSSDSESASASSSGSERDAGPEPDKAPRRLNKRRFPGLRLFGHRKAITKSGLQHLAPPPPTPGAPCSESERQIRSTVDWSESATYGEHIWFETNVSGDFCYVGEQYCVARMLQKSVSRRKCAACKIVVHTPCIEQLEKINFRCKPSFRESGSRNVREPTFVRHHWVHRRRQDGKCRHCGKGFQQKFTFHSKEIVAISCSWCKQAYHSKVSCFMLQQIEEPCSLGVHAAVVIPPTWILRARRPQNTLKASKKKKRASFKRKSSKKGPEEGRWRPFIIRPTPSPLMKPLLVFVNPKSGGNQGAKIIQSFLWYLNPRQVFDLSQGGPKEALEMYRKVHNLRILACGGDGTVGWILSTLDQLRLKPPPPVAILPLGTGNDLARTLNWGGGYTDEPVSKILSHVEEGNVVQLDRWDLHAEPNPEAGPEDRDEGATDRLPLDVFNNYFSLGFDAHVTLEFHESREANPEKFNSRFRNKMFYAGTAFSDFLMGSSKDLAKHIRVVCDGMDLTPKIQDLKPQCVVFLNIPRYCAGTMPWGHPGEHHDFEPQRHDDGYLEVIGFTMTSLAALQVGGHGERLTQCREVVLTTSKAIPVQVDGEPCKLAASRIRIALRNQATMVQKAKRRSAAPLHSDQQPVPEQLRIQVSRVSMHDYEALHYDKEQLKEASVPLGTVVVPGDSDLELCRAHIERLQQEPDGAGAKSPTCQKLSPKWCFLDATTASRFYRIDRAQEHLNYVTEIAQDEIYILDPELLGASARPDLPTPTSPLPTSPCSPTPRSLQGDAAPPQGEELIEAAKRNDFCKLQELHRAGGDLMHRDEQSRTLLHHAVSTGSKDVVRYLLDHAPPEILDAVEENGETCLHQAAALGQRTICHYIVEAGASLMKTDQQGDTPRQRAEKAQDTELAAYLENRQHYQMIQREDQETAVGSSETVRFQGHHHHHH
T1 sequence (P23743 with tags, fused parts or gaps): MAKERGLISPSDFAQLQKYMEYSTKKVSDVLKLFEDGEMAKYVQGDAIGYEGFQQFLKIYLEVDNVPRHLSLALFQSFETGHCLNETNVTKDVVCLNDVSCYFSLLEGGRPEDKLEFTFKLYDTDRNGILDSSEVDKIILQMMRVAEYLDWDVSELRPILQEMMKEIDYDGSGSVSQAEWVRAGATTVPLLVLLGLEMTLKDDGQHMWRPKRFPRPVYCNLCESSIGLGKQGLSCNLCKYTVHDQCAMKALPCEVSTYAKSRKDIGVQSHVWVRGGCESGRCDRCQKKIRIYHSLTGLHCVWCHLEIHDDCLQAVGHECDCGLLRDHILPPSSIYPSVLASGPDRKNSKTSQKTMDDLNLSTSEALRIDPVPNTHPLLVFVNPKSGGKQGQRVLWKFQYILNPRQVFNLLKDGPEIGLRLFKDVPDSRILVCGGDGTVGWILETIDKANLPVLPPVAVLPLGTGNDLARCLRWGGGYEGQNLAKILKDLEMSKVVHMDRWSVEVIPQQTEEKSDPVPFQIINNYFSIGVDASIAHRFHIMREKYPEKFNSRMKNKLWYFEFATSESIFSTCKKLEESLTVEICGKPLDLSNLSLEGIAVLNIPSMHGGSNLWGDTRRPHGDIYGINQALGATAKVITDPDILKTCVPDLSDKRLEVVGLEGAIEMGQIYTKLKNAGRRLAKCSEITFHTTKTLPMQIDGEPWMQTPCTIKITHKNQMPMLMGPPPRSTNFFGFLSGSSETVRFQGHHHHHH

SMILES	IC50 (human DGKα; liposome (LIPGLO) assay) [nM]	IC50 (human DGKζ; liposome (LIPGLO) assay) [nM]	EC50 (Human venous whole blood; [2]) [nM]	also measured
C[C@@H]1CN(c2cc(=O)n(C)c3ccc(C#N)nc23)[C@@H](C)CN1C(c1ccc(F)c(F)c1)c1ccccn1 (mixture of isomers) [Example 366, 8-((2S,5R)-4-((3,4-difluorophenyl)(pyridin-2-yl)methyl)-2,5-dimethylpiperazin-1-yl)-5-methyl-6-oxo-5,6-dihydro-1,5-naphthyridine-2-carbonitrile]	570	2000		EC50 (Human venous whole blood; [1]): 490 nM
C[C@@H]1CN(c2cc(=O)n(C)c3ccc(C#N)nc23)[C@@H](C)CN1C(c1ccc(Cl)cc1)c1ccccn1 (mixture of isomers) [Example 403, 8-((2S,5R)-4-((4-chlorophenyl)(pyridin-2-yl)methyl)-2,5-dimethylpiperazin-1-yl)-5-methyl-6-oxo-5,6-dihydro-1,5-naphthyridine-2-carbonitrile]	140	460		EC50 (Human venous whole blood; [1]): 170 nM
C[C@@H]1CN(c2cc(=O)n(C)c3ccc(C#N)nc23)[C@@H](C)CN1C(c1ccccc1)c1ccc(F)cc1 (single isomer, unassigned) [Example 184]			570	
CCC(c1cc(Cl)cc2c1OCC2)N1C[C@H](C)N(c2cc(=O)n(C)c3ccc(C#N)nc23)C[C@H]1C (single isomer, unassigned) [Example 357]		890	13000	
CC(c1ccc(OC(F)(F)F)cc1F)N1C[C@H](C)N(c2cc(=O)n(C)c3ccc(C#N)nc23)C[C@H]1C (single isomer, unassigned) [Example 439]		320	680	
CC(c1ccc(C(F)(F)F)cn1)N1C[C@H](C)N(c2cc(=O)n(C)c3ccc(C#N)nc23)C[C@H]1C (single isomer, unassigned) [Example 642]		190		EC50 (Human venous whole blood; [1]): 3300 nM
C[C@@H]1CN(c2cc(=O)n(C)c3ccc(C#N)nc23)[C@@H](C)CN1C(c1ccc(F)cc1)c1nc(C2CCN(C)CC2)no1 (single isomer, unassigned) [Example 751]				IC50 (human DGKζ; DGKζ liposome (LIPGLO) assay): 17000 nM; EC50 (Human venous whole blood; [3]): 4500 nM
C[C@@H]1CN(c2c(C#N)c(=O)n(C)c3ccc(C#N)nc23)CCN1C(c1ccccc1)c1ccc(Cl)cc1 (single isomer, unassigned) [Example 887]				EC50 (Human venous whole blood; read-out: INFg Whole Blood Normalized Agonist EC50; human whole blood, anti-CD3 plus anti-CD28, 24 hours; 3 μM reference compound = 100% activation): 1600 nM
CC(c1ccc(C(F)(F)F)cc1)N1CCN(c2c(C#N)c(=O)n(C)c3ccc(C#N)nc23)C[C@H]1C (single isomer, unassigned) [Example 961]				IC50 (human DGKα; DGKα liposome (LIPGLO) assay): 1500 nM; EC50 (Human venous whole blood; [3]): 20000 nM
CC[C@H]1CN(C(c2ccc(F)cc2)c2ccccn2)[C@H](CC)CN1c1cc(=O)n(C)c2ccc(C#N)nc12 (single isomer, unassigned) [Example 1044]		70	350	
C[C@@H]1CN(c2c(F)c(=O)n(C)c3ccc(C#N)nc23)[C@@H](C)CN1C(c1ccc(Cl)cc1)c1ccc(OC(F)(F)F)cc1 (stereo partly drawn) [Example 323, 8-((2S,5R)-4-((4-chlorophenyl)(4-(trifluoromethoxy)phenyl)methyl)-2,5-dimethylpiperazin-1-yl)-7-fluoro-5-methyl-6-oxo-5,6-dihydro-1,5-naphthyridine-2-carbonitrile]	2100			EC50 (Human venous whole blood; [1]): 5700 nM
C[C@@H]1CN(c2c(F)c(=O)n(C)c3ccc(C#N)nc23)[C@@H](C)CN1C(c1ccc(F)cc1)c1ccc(C(F)(F)F)cc1 (stereo partly drawn) [Example 326, 7-fluoro-8-((2S,5R)-4-((4-fluorophenyl)(4-(trifluoromethyl)phenyl)methyl)-2,5-dimethylpiperazin-1-yl)-5-methyl-6-oxo-5,6-dihydro-1,5-naphthyridine-2-carbonitrile]		6500	20000	
Cc1noc(C(c2ccc(F)cc2)N2C[C@H](C)N(c3cc(=O)n(C)c4ccc(C#N)nc34)C[C@H]2C)n1 (stereo partly shown) [Example 746]				IC50 (human DGKζ; DGKζ liposome (LIPGLO) assay): 170 nM; EC50 (Human venous whole blood; [3]): 960 nM
COc1ccc(C(c2ccc(F)cc2)N2C[C@H](C)N(c3c(C#N)c(=O)n(C)c4ccc(C#N)nc34)C[C@H]2C)nc1 (stereo partly shown) [Example 838]				IC50 (human DGKζ; DGKζ liposome (LIPGLO) assay): 2100 nM; EC50 (Human venous whole blood; [4]): 17000 nM
Cc1cccc(C(c2ccc(F)cc2)N2CCN(c3c(C#N)c(=O)n(C)c4ccc(C#N)nc34)C[C@H]2C)c1 (stereo partly shown) [Example 916]				IC50 (human DGKζ; DGKζ liposome (LIPGLO) assay): 450 nM; EC50 (Human venous whole blood; [3]): 1900 nM
C[C@@H]1CN(c2c(C#N)c(=O)n(C)c3ccc(C#N)nc23)CCN1Cc1ccccc1OC(F)(F)F [Example 999]				IC50 (human DGKα; DGKα liposome (LIPGLO) assay): 270 nM; EC50 (Human venous whole blood; [4]): 17000 nM
CCC(c1cc(OC(F)(F)F)ccc1F)N1C[C@H](C)N(c2cc(=O)n(C)c3ccc(C#N)nc23)C[C@H]1C (stereo partly shown) [Example 1206]			2100	
COCc1ccc(C(C)N2C[C@H](C)N(c3cc(=O)n(C)c4ccc(C#N)nc34)C[C@H]2C)cc1 (stereo partly shown) [Example 1266]			1400	

Second part, led by results:

IC50 (human DGKα; liposome (LIPGLO) assay) [nM]	IC50 (human DGKζ; liposome (LIPGLO) assay) [nM]	SMILES	EC50 (Human venous whole blood; [2]) [nM]	also measured
590		CC(c1csc(C(F)(F)F)n1)N1C[C@H](C)N(c2cc(=O)n(C)c3ccc(C#N)nc23)C[C@H]1C (single isomer, unassigned) [Example 1274]	3300	
760		CC(c1cc(C(C)(C)C)on1)N1C[C@H](C)N(c2cc(=O)n(C)c3ccc(C#N)nc23)C[C@H]1C (single isomer, unassigned) [Example 1284]	2800	
290000		C[C@@H]1CN(c2cc(=O)n(C)c3ccc(C#N)nc23)[C@@H](C)CN1C(c1ccc(F)cc1)c1ccccc1P(C)(C)=O (single isomer, unassigned) [Example 1288]		EC50 (Human venous whole blood; [1]): 8800 nM
	220000	CC(c1ccc(P(C)(C)=O)cc1)N1C[C@H](C)N(c2c(C#N)c(=O)n(C)c3ccc(C#N)nc23)C[C@H]1C (single isomer, unassigned) [Example 1294]		EC50 (Human venous whole blood; [1]): 20000 nM
	70	COC[C@@H]1CN(c2cc(=O)n(C)c3ccc(C#N)nc23)[C@@H](C)CN1C(c1ccc(F)cc1)c1nc(C2CC2)cs1 (single isomer, unassigned) [Example 1395]	190	
	160	CC[C@@H]1CN(c2cc(=O)n(C)c3ccc(C#N)nc23)[C@@H](C)CN1C(c1ccc(Cl)cc1)c1ccc(F)cn1 (stereo partly shown) [Example 1110]	1300	
2200		CC(c1cc(OC(F)(F)F)ccc1F)N1C[C@H](C)N(c2cc(=O)n(C)c3ccc(C#N)nc23)C[C@H]1C (stereo partly shown) [Example 1202]	1300	
	160	CC(c1ccc(Cl)cc1F)N1C[C@H](C)N(c2cc(=O)n(C)c3ccc(C#N)nc23)C[C@H]1C (stereo partly shown) [Example 1230]		EC50 (Human venous whole blood; [1]): 100 nM
5400	1300	CC(c1ccc(F)c(C#N)c1)N1C[C@H](C)N(c2cc(=O)n(C)c3ccc(C#N)nc23)C[C@H]1C (stereo partly shown) [Example 1262]		
1400	1400	C[C@@H]1CN(c2cc(=O)n(C)c3ccc(C#N)nc23)[C@@H](C)CN1C(CO)c1ccc(C(F)(F)F)cn1 (stereo partly drawn) [Example 1279, 8-((2S,5R)-4-(2-hydroxy-1-(5-(trifluoromethyl)pyridin-2-yl)ethyl)-2,5-dimethylpiperazin-1-yl)-5-methyl-6-oxo-5,6-dihydro-1,5-naphthyridine-2-carbonitrile]		
	3700	C[C@@H]1CN(c2cc(=O)n(C)c3ccc(C#N)nc23)[C@@H](C)CN1C(c1ccc(F)cc1)c1ccccc1P(C)(C)=O (stereo partly drawn) [Example 1287, 8-((2S,5R)-4-((2-(dimethylphosphoryl)phenyl)(4-fluorophenyl)methyl)-2,5-dimethylpiperazin-1-yl)-5-methyl-6-oxo-5,6-dihydro-1,5-naphthyridine-2-carbonitrile]		EC50 (Human venous whole blood; [1]): 8400 nM
110000	17000	COc1ccc(C(C)N2C[C@H](C)N(c3cc(=O)n(C)c4ccc(C#N)nc34)C[C@H]2C)cc1OCCN1CCOCC1 (stereo partly shown) [Example 1304]		
	170	CC[C@@H]1CN(c2cc(=O)n(C)c3ccc(C#N)nc23)[C@@H](C)CN1Cc1ccc(OC(F)(F)F)cc1F [Example 1347]		EC50 (Human venous whole blood; [1]): 730 nM
22	16	COC[C@@H]1CN(c2cc(=O)n(C)c3ccc(C#N)nc23)[C@@H](C)CN1C(c1ccc(F)cc1)c1nc(C2CC2)no1 (stereo partly drawn) [Example 1393, 8-((2S,5S)-4-((3-cyclopropyl-1,2,4-oxadiazol-5-yl)(4-fluorophenyl)methyl)-5-(methoxymethyl)-2-methylpiperazin-1-yl)-5-methyl-6-oxo-5,6-dihydro-1,5-naphthyridine-2-carbonitrile]		
	1800	CC(c1ccc(OC(F)(F)F)cc1)N1C[C@H](C)N(c2cc(=O)n(C)c3ccc(C#N)nc23)C[C@H]1CN(C)C (stereo partly drawn) [Example 1413, 8-((2S,5R)-5-((dimethylamino)methyl)-2-methyl-4-(1-(4-(trifluoromethoxy)phenyl)ethyl)piperazin-1-yl)-5-methyl-6-oxo-5,6-dihydro-1,5-naphthyridine-2-carbonitrile]		EC50 (Human venous whole blood; [1]): 1400 nM
48000		Cc1oc(-c2cccc(F)c2)nc1CN1C[C@H](C)N(c2cc(=O)n(C)c3ccc(C#N)nc23)C[C@H]1C [Example 1429]	20000	
21000		Cc1oc(-c2cccc(F)c2)nc1CN1C[C@H](C)N(c2cc(=O)n(C)c3ccc(C#N)nc23)C[C@H]1C [Example 1430]	7000	
11000	5600	C[C@@H]1CN(c2cc(=O)n(C)c3ccc(C#N)nc23)[C@@H](C)CN1Cc1nnc(C(F)(F)F)o1 [Example 1436]		
